# Several values for one entry are separate records, joined by “and”; a condition that tells them apart may be missing. Equal values may be shown once. Where a name gives a salt, the structure may show the parent alone.
# Key:
# [1] = Example 2 aqueous humor concentrations; type: in vivo, male New Zealand White rabbits; conditions: for Average Peak Concentration, Aqueous Humor: solution
# Description: (§1) To measure the concentration of Compound 1 in plasma and ocular tissues following topical ocular, subcutaneous, and intravitreal administration, New Zealand White rabbits were administered Compound 1, and plasma and ocular samples were collected at pre-determined time points. Compound 1 formulations were prepared fresh on each day of dosing.
# (§2) Ocular tissue samples from both eyes of each animal were collected and weights were recorded. Plasma and ocular tissue sample concentrations of Compound 1 were determined by LC-MS/MS.
# (§3) Animals were anesthetized for ocular (topical) and intravitreal dosing following the 12IA7 IACUC protocol. Each rabbit received a bolus dose of test formulation either via topical ocular administration 3 times daily on Days 1 and 2 (at 0, 6, and 12 hours), and once on Day 3 (at 0 hours) into both eyes; via intravitreal administration into both eyes once on Day 1 (at 0 hours); or via subcutaneous administration 2 times daily on Days 1 and 2 (at 0 and 8 hours) and once daily on Day 3 (at 0 hours). Doses were given within an approximately 1 hour window each day where applicable.
# (§4) On Day 1, for intravitreal administration, or on Day 3, for topical ocular and subcutaneous administration, at the appropriate ocular tissue collection time points, animals were euthanized and both eyes were enucleated immediately. Following enucleation, each eye was rinsed with phosphate-buffered saline. Ocular tissue samples from both eyes of each animal were collected at predetermined time points and weights were recorded. All the samples were frozen immediately on dry ice, and stored at −60° C. to −80° C. pending bioanalysis.
# (§5) An LC-MS/MS method was developed for the determination of Compound 1 in rabbit aqueous tissues (plasma, aqueous and vitreous humor) and solid ocular tissue samples. A pre-study standard curve was analyzed to determine the specificity, range, and lower limit of quantitation of the method. Plasma and tissue homogenate study samples were extracted and analyzed. All the samples were treated identically to the standards.
# (§6) One eight-point standard curve was used in each analytical batch. To be accepted, each batch must have had at least five of eight standards with accuracy within ±20% of nominal, except at the lower limit of quantification (LLOQ), where ±25% was acceptable.
# [2] = Example 2 iris, retina, choroid and cornea tissue concentrations; type: in vivo, male New Zealand White rabbits; conditions: for Average / Conc. (ng/g) OD / Conc. (ng/g) OS / Conc. (ng/mL) OD / Conc. (ng/mL) OS: sodium salt; for Average Peak Concentration, Choroid / Average Peak Concentration, Cornea / Average Peak Concentration, Iris / Average Peak Concentration, Retina: solution
# Description: as §1, §2, §3, §4, §5, §6
# [3] = Group 1 (topical ocular 1.2 mg/eye), 0.5 hr
# [4] = Group 1 (topical ocular 1.2 mg/eye), 1.0 hr
# [5] = Group 1 (topical ocular 1.2 mg/eye), 2.0 hr
# [6] = Group 1 (topical ocular 1.2 mg/eye), 4.0 hr
# [7] = Group 1: topical ocular 0.70 mg/kg/dose
# [8] = Group 2 (subcutaneous 5 mg/kg/dose, solution), 0.5 hr
# [9] = Group 2 (subcutaneous 5 mg/kg/dose, solution), 1.0 hr
# [10] = Group 2 (subcutaneous 5 mg/kg/dose, solution), 2.0 hr
# [11] = Group 2 (subcutaneous 5 mg/kg/dose, solution), 4.0 hr, BLOQ = below 0.2 ng/mL
# [12] = Group 2: subcutaneous 5 mg/kg/dose
# [13] = Group 4 (intravitreal 2.5 mg/eye, solution), 6.0 hr
# [14] = Group 4 (intravitreal 2.5 mg/eye, solution), 24 hr
# [15] = Group 4 (intravitreal 2.5 mg/eye, solution), 48 hr
# [16] = Group 4: intravitreal 1.55 mg/kg/dose
# [17] = Choroid, 0.5 hr, subcutaneous 5 mg/kg/dose (Group 2)
# [18] = Choroid, 1 hr, subcutaneous 5 mg/kg/dose (Group 2)
# [19] = Choroid, 1 hr, topical ocular 1.2 mg/eye (Group 1)
# [20] = Choroid, 2 hr, topical ocular 1.2 mg/eye (Group 1)
# [21] = Choroid, 4 hr, subcutaneous 5 mg/kg/dose (Group 2)
# [22] = Choroid, 4 hr, topical ocular 1.2 mg/eye (Group 1)
# [23] = Cornea, 0.5 hr, subcutaneous 5 mg/kg/dose (Group 2)
# [24] = Cornea, 0.5 hr, topical ocular 1.2 mg/eye (Group 1)
# [25] = Cornea, 1 hr, subcutaneous 5 mg/kg/dose (Group 2)
# [26] = Cornea, 1 hr, topical ocular 1.2 mg/eye (Group 1)
# [27] = Cornea, 2 hr, subcutaneous 5 mg/kg/dose (Group 2)
# [28] = Cornea, 4 hr, subcutaneous 5 mg/kg/dose (Group 2)
# [29] = Cornea, 4 hr, topical ocular 1.2 mg/eye (Group 1)
# [30] = Iris, 0.5 hr, subcutaneous 5 mg/kg/dose (Group 2)
# [31] = Iris, 0.5 hr, topical ocular 1.2 mg/eye (Group 1)
# [32] = Iris, 1 hr, subcutaneous 5 mg/kg/dose (Group 2)
smiles,measurement,setting,value
COC(=O)N[C@@H](Cc1ccccc1)C(=O)N[C@@H](Cc1ccc(NS(=O)(=O)O)cc1)c1csc(-c2cccs2)n1 [Compound 1 sodium salt],aqueous humor Average Conc.,[1]; [3],45.8 ng/g
same,aqueous humor Conc. OS,[1]; [3],1.78 ng/mL
same,aqueous humor Average Conc.,[1]; [4],15.0 ng/g
same,aqueous humor Conc. OD,[1]; [4],4.03 ng/mL and 3.05 ng/mL
same,aqueous humor Conc. OS,[1]; [4],3.55 ng/mL
same,aqueous humor Average Conc.,[1]; [5],31.6 ng/g
same,aqueous humor Conc. OD,[1]; [5],2.46 ng/mL
same,aqueous humor Conc. OS,[1]; [5],14.5 ng/mL and 15.8 ng/mL
same,aqueous humor Average Conc.,[1]; [6],8.24 ng/g
same,aqueous humor Conc. OD,[1]; [6],5.48 ng/mL and 7.78 ng/mL
same,"Average Peak Concentration, Aqueous Humor",[1]; [7],45.8 ng/g
same,aqueous humor Average Conc.,[1]; [8],26.1 ng/g
same,aqueous humor Conc. OD,[1]; [8],23.5 ng/mL and 18.0 ng/mL
same,aqueous humor Conc. OS,[1]; [8],24.6 ng/mL and 38.2 ng/mL
same,aqueous humor Average Conc.,[1]; [9],3.30 ng/g
same,aqueous humor Conc. OD,[1]; [9],4.51 ng/mL and 3.22 ng/mL
same,aqueous humor Conc. OS,[1]; [9],1.84 ng/mL and 3.63 ng/mL
same,aqueous humor Average Conc.,[1]; [10],0.72 ng/g
same,aqueous humor Conc. OD,[1]; [10],0.581 ng/mL and 0.453 ng/mL
same,aqueous humor Conc. OS,[1]; [10],0.498 ng/mL
same,aqueous humor Conc. OD,[1]; [11],BLOQ
same,aqueous humor Conc. OS,[1]; [11],BLOQ
same,"Average Peak Concentration, Aqueous Humor",[1]; [12],26.1 ng/g
same,aqueous humor Average Conc.,[1]; [13],80575 ng/g
same,aqueous humor Conc. OD,[1]; [13],90600 ng/mL and 75300 ng/mL
same,aqueous humor Conc. OS,[1]; [13],77100 ng/mL and 79300 ng/mL
same,aqueous humor Average Conc.,[1]; [14],9000 ng/g
same,aqueous humor Conc. OD,[1]; [14],4700 ng/mL
same,aqueous humor Conc. OS,[1]; [14],5190 ng/mL and 6810 ng/mL
same,aqueous humor Average Conc.,[1]; [15],1963 ng/g
same,aqueous humor Conc. OD,[1]; [15],2040 ng/mL and 2330 ng/mL
same,aqueous humor Conc. OS,[1]; [15],1510 ng/mL and 1970 ng/mL
same,aqueous humor Average Conc.,"[1]; Group 4 (intravitreal 2.5 mg/eye, solution), 72 hr",34.5 ng/g
same,"Average Peak Concentration, Aqueous Humor",[1]; [16],80575 ng/g
same,aqueous humor concentrations vs free acid (FIG. 8),"[1]; intravitreal administration, up to forty-eight hours post-administration",higher aqueous humor concentrations
same,aqueous humor concentrations vs free acid (FIG. 7),"[1]; subcutaneous administration, early time points",increased aqueous humor concentrations as compared to the free acid
same,aqueous humor concentrations (FIG. 6),"[1]; topical ocular administration, over four hours",below 50 ng/g
same,Average,[2]; [17],266 ng/g
same,Conc. (ng/g) OD,[2]; [17],264 ng/g and 282 ng/g
same,Conc. (ng/g) OS,[2]; [17],282 ng/g and 235 ng/g
same,Conc. (ng/mL) OD,[2]; [17],24.0 ng/mL and 25.6 ng/mL
same,Conc. (ng/mL) OS,[2]; [17],25.6 ng/mL and 21.4 ng/mL
same,Average,"[2]; Choroid, 0.5 hr, topical ocular 1.2 mg/eye (Group 1)",57.7 ng/g
same,Average,[2]; [18],200 ng/g
same,Conc. (ng/g) OD,[2]; [18],320 ng/g and 211 ng/g
same,Conc. (ng/g) OS,[2]; [18],144 ng/g and 125 ng/g
same,Conc. (ng/mL) OD,[2]; [18],29.1 ng/mL and 19.2 ng/mL
same,Conc. (ng/mL) OS,[2]; [18],13.1 ng/mL and 11.4 ng/mL
same,Average,[2]; [19],32.2 ng/g
same,Conc. (ng/g) OD,[2]; [19],61.2 ng/g and 31.8 ng/g
same,Conc. (ng/g) OS,[2]; [19],16.5 ng/g and 19.5 ng/g
same,Conc. (ng/mL) OD,[2]; [19],5.56 ng/mL and 2.89 ng/mL
same,Conc. (ng/mL) OS,[2]; [19],1.50 ng/mL and 1.77 ng/mL
same,Average,"[2]; Choroid, 2 hr, subcutaneous 5 mg/kg/dose (Group 2)",68.8 ng/g
same,Average,[2]; [20],59.2 ng/g
same,Conc. (ng/g) OS,[2]; [20],43.9 ng/g and 64.5 ng/g
same,Conc. (ng/mL) OS,[2]; [20],3.99 ng/mL and 5.86 ng/mL
same,Average,[2]; [21],15.5 ng/g
same,Conc. (ng/g) OD,[2]; [21],18.7 ng/g and 16.5 ng/g
same,Conc. (ng/g) OS,[2]; [21],13.4 ng/g
same,Conc. (ng/mL) OD,[2]; [21],1.70 ng/mL and 1.50 ng/mL
same,Conc. (ng/mL) OS,[2]; [21],1.22 ng/mL
same,Average,[2]; [22],165 ng/g
same,Conc. (ng/g) OD,[2]; [22],27.8 ng/g and 52.1 ng/g
same,Conc. (ng/g) OS,[2]; [22],81.1 ng/g
same,Conc. (ng/mL) OD,[2]; [22],2.53 ng/mL and 4.74 ng/mL
same,Average,[2]; [23],19.4 ng/g
same,Conc. (ng/g) OS,[2]; [23],27.1 ng/g and 21.3 ng/g
same,Conc. (ng/mL) OS,[2]; [23],2.46 ng/mL and 1.94 ng/mL
same,Average,[2]; [24],1015 ng/g
same,Conc. (ng/g) OD,[2]; [24],240 ng/g and 370 ng/g
same,Conc. (ng/g) OS,[2]; [24],427 ng/g
same,Conc. (ng/mL) OD,[2]; [24],21.8 ng/mL and 33.6 ng/mL
same,Average,[2]; [25],31.1 ng/g
same,Conc. (ng/g) OD,[2]; [25],26.1 ng/g and 23.4 ng/g
same,Conc. (ng/g) OS,[2]; [25],25.3 ng/g
same,Conc. (ng/mL) OD,[2]; [25],2.37 ng/mL and 2.13 ng/mL
same,Conc. (ng/mL) OS,[2]; [25],4.52 ng/mL and 2.30 ng/mL
same,Average,[2]; [26],548 ng/g
same,Conc. (ng/g) OS,[2]; [26],482 ng/g and 532 ng/g
same,Conc. (ng/mL) OS,[2]; [26],43.8 ng/mL and 48.4 ng/mL
same,Average,[2]; [27],9.45 ng/g
same,Conc. (ng/g) OD,[2]; [27],11.7 ng/g
same,Conc. (ng/g) OS,[2]; [27],11.0 ng/g
same,Average,"[2]; Cornea, 2 hr, topical ocular 1.2 mg/eye (Group 1)",1073 ng/g
same,Average,[2]; [28],10.1 ng/g
same,Conc. (ng/g) OD,[2]; [28],8.27 ng/g and 9.60 ng/g
same,Conc. (ng/g) OS,[2]; [28],8.62 ng/g and 13.9 ng/g
same,Conc. (ng/mL) OD,[2]; [28],0.752 ng/mL and 0.873 ng/mL
same,Conc. (ng/mL) OS,[2]; [28],0.784 ng/mL and 1.26 ng/mL
same,Average,[2]; [29],534 ng/g
same,Conc. (ng/g) OD,[2]; [29],493 ng/g and 362 ng/g
same,Conc. (ng/mL) OD,[2]; [29],44.8 ng/mL and 32.9 ng/mL
same,"Average Peak Concentration, Choroid",[2]; [7],57.7 ng/g
same,"Average Peak Concentration, Cornea",[2]; [7],1015 ng/g
same,"Average Peak Concentration, Iris",[2]; [7],24.3 ng/g
same,"Average Peak Concentration, Retina",[2]; [7],25.6 ng/g
same,"Average Peak Concentration, Choroid",[2]; [12],266 ng/g
same,"Average Peak Concentration, Cornea",[2]; [12],19.4 ng/g
same,"Average Peak Concentration, Iris",[2]; [12],459 ng/g
same,"Average Peak Concentration, Retina",[2]; [12],40.5 ng/g
same,"Average Peak Concentration, Choroid",[2]; [16],947375 ng/g
same,"Average Peak Concentration, Cornea",[2]; [16],71445 ng/g
same,"Average Peak Concentration, Iris",[2]; [16],351725 ng/g
same,"Average Peak Concentration, Retina",[2]; [16],774400 ng/g
same,Average,[2]; [30],459 ng/g
same,Conc. (ng/g) OD,[2]; [30],305 ng/g and 454 ng/g
same,Conc. (ng/mL) OD,[2]; [30],27.7 ng/mL and 41.3 ng/mL
same,Average,[2]; [31],24.3 ng/g
same,Conc. (ng/g) OD,[2]; [31],28.1 ng/g and 18.7 ng/g
same,Conc. (ng/g) OS,[2]; [31],17.8 ng/g and 32.5 ng/g
same,Conc. (ng/mL) OD,[2]; [31],2.55 ng/mL and 1.7 ng/mL
same,Conc. (ng/mL) OS,[2]; [31],1.62 ng/mL and 2.95 ng/mL
same,Average,[2]; [32],94.7 ng/g
same,Conc. (ng/g) OD,[2]; [32],125 ng/g and 99.2 ng/g
same,Conc. (ng/g) OS,[2]; [32],97.6 ng/g and 56.4 ng/g
same,Conc. (ng/mL) OD,[2]; [32],11.4 ng/mL and 9.02 ng/mL
same,Conc. (ng/mL) OS,[2]; [32],8.87 ng/mL and 5.13 ng/mL
same,Average,"[2]; Iris, 1 hr, topical ocular 1.2 mg/eye (Group 1)",55.2 ng/g
